Entries after “also recorded” stand apart in the source; their conditions may differ.
What was measured:
OE33 xenograft tumors = assay: In vivo NIR fluorescence imaging of OE33 xenograft tumors (Cy5.5); set-up: species or system nude mice
Method: (§1) Optical imaging was performed in nude mice bearing xenograft tumors in vivo to characterize pharmacokinetics and assess toxicity. All experimental procedures were performed in accordance with relevant guidelines and regulations of the University of Michigan, and all animal studies were conducted with approval by the University Committee on the Use and Care of Animals (UCUCA). Animals were housed per guidelines of the Unit for Laboratory Animal Medicine (ULAM).
Female athymic nude mice (002019 Foxn1, Jackson Laboratories) were obtained at 4-5 weeks of age, and were housed with four animals per cage and fed with sterilized pellet chow and water. Mice were anesthetized in an isoflurane chamber, and OE33 xenograft tumors were generated by subcutaneous injection of about 5×10^7 tumor cells suspended in […] of sterile PBS in the hind limb flank. Mice were studied at about 3-4 weeks post-inoculation when the tumor volume reached about 0.5-0.8 cm in size.
In vivo fluorescence images were collected using the Xenogen IVIS™ 200 small animal imaging system. Fluorescence intensities were measured and normalized. […] Images were collected prior to peptide injection to assess baseline auto-fluorescence values and then at various time points post-injection up to 24 hours, FIG. 5A. Fluorescence images were excited at λex=675 nm, and emission was collected at λem=740 nm with 5 sec exposure (f/stop=8).

[1] = system: OE33 human esophageal adenocarcinoma cells; assay: Confocal microscopy binding of heterodimer versus monomers to OE33 cells; type: cell-based
OE33 cells [2] = assay: Apparent dissociation constant by flow cytometry with OE33 cells; type: binding, human
Method: The apparent dissociation constant (Kd) was measured to assess binding affinity of the heterodimer to OE33 cells. The heterodimer was serially diluted in PBS at concentrations of about 0, 10, 25, 50, 100, and 200 nM with about […] at 4° C. for one hour and washed with cold PBS. The mean fluorescence intensities were measured with flow cytometry (BD LSRII, BD Biosciences). The equilibrium dissociation constant Kd 1/Ka was calculated with a least-squares fit of the data to the nonlinear equation I=(I0+ImaxKa[X])/(I0+Ka[X]). I0 and Imax are the initial and maximum fluorescence intensities, corresponding to no peptide and at saturation, respectively, and [X] represents the concentration of bound peptide. Prism 5.0 software (Graphpad Inc.) was used to calculate Kd and Ka.

[3] = Hydrophilicity of heterodimer; type: physicochemical
[4] = system: EGFR or ErbB2 in SKBr3 cells; assay: siRNA knockdown of EGFR or ErbB2 in SKBr3 cells, confocal binding; type: cell-based, human
Method: siRNA knockdown experiments were performed to further validate specific heterodimer binding to either EGFR or ErbB2 in vitro. Separate siRNA knockdown of either EGFR or ErbB2 expression in SkBr3 cells was carried out to validate specific peptide binding. ON-TARGET plus human EGFR siRNA (#L-003114-00-0005), ONTARGET plus human ErbB2 siRNA (#L-003126-00-0005) and ON-TARGET plus non-targeting pool (#D-001810-10-05) were used.
siRNA at 5 μM concentration in 5 μL was transfected into SKBr3 cells using DharmaFECT transfection reagents (Thermo Scientific). Briefly, cells were seeded in 6-well culture plates at 30% confluence in McCoy's 5 Å media supplemented with 10% FBS without antibiotics. The cells were transfected with siRNA at a final concentration of […] using oligofectamine (Thermo Scientific). Knockdown of either EGFR or ErbB2 was confirmed by Western blot.

[5] = Acute toxicity, histology (H&E) of major organs; type: in vivo, mice; conditions: brain, heart, kidney, liver, spleen and lung; after day 15
Method: as §1

SKBr3 cells = assay: Confocal microscopy binding of Cy5.5-labeled heterodimer linker configurations to SKBr3 cells; type: cell-based, human; conditions: linkers E2, Hex, E3, E6, E10
From the text: The two monomers were combined in a heterodimer configuration using a variable linker designed with either a PEG spacer that ranged in size from 17-74 atoms or a hydrophobic 6-aminohexonic acid linker in the α-, ξ-amino groups of the second lysine. The linker length was varied to determine the optimal spacing between monomers to maximize binding to the intended targets. Using confocal microscopy, binding for each Cy5.5-labeled heterodimer configuration to human breast cancer cells SKBr3 that overexpress both EGFR and ErbB2 was evaluated, FIG. 1B.
Hydrophilicity was good as well. Western blot analysis was used to show relative EGFR and ErbB2 expression levels, FIG. 1D. Western blot was performed by lysing cells in Pierce® RIPA lysis buffer containing Halt™ protease inhibitor cocktail (#87786, Thermo Scientific) for 30 min on ice. The lysates were centrifuged at 10,000 rpm for 10 min at 4° C. A BSA protein assay kit (#23227, Thermo Scientific) was used to quantify protein concentration in the supernatant. Aliquots of protein (10 μL) were used for electrophoresis on NuPAGE™ 4-12% Bis-Tris gels (#17031471, Invitrogen) followed by electrophoretic transfer onto membranes (#ISEQ00010, Merck Millipore Ltd). […]

OE33 cells [6] = assay: Apparent association time constant by flow cytometry with OE33 cells; type: binding, human
Method: The apparent association time constant (Ka) was measured to assess binding kinetics to OE33 cells. OE33 cells were grown to about 80% confluence in 10 cm dishes, and cells were then detached with PBS-based cell dissociation buffer (Invitrogen). About 10^5 cells were incubated with 1 μM of the heterodimer at 4° C. for different time periods ranging from […]. The cells were centrifuged, washed with cold PBS, and fixed with 4% PFA. Flow cytometry was performed, and the median fluorescence intensity (y) was ratioed with that of OE33 cells without addition of peptide at time points (t) using Flowjo software. The rate constant K was calculated by fitting the data to the first-order kinetics model, y(t)=Imax[1−exp^(−kt)], where Imax=maximum value, using Prism 5.0 software.

What does the source list for “heterodimer of QRHKPRE (SEQ ID NO: 1) and KSPNPRF (SEQ ID NO: 2) with E3 (triethyleneglycol) linker, Cy5.5 label [QRH*-KSP*-E3-Cy5.5]”?
peak mean tumor signal versus control peptide (OE33 xenograft tumors; about 2 hours after intravenous injection, n=6): significantly greater; time of return of signal to baseline / systemic clearance (OE33 xenograft tumors; intravenous, OE33 xenograft): about 24 hours; greater fluorescence intensity compared with either monomer alone [1]: 3 fold; improved binding affinity compared with either monomer alone (OE33 cells [2]): 2 fold; Kd (OE33 cells [2]; flow cytometry, 4° C.): 0.023 µM; Hydrophilicity [3]: good; binding to siCL (control) versus siEGFR (knockdown) SKBr3 cells ([4]; confocal microscopy, similar results for siErbB2): Less signal; also recorded: significantly greater binding; binding to surface of siCL (control) SKBr3 cells ([4]; non-targeting siRNA): strong binding; mean fluorescence intensity in EGFR or ErbB2 knockdown cells ([4]; quantified, versus control SKBr3 cells): significant reduction; acute toxicity on histology (H&E) [5]: no sign of acute toxicity; mean signal among heterodimer linker configurations (SKBr3 cells): largest signal; apparent association time constant Ka (OE33 cells [6]; flow cytometry, 1 μM, 4° C.): 0.22 min⁻¹; apparent association time constant (time) (OE33 cells [6]; value in brackets after Ka): 4.5 min
